# Where two headings read alike, the source gives them in different places.
# Key:
# [1] = test system: influenza or influenza-like illness; assay: Randomized, single-blind clinical study, treatment of influenza or influenza-like illness in combination with Tamiflu; format: in vivo, human
# Method: Subjects were randomized and placed on a treatment regimen of five days. Group C contained 29 subjects that received 75 mg of Tamiflu® (Oseltamivir Phosphate) in capsule form two times a day for five days. Group D contained 29 subjects that received 75 mg of Tamiflu® (Oseltamivir Phosphate) in capsule form and two 175 mg lozenges of HSRx 351 two times a day for 5 days.
# Subjects were also instructed to record any adverse events.
# Statistical Analysis/Results—A survival analysis was performed to compare over time the Influenza symptom functions of groups C and D. The time dependent event for which survival and hazard functions were calculated was the final data collection visit for each subject. A Generalized Linear Mixed Model was run to test the hypothesis of fewer adverse events in the combination treatment Group D versus Tamiflu® (Oseltamivir phosphate) only treatment groups C. Parameter estimates such as beta weights and R2 were evaluated along with a P value significance level set at 5%.
# [2] = test system: flu and/or flu like symptoms; details: 10 day regimen, 30 subjects per group
# [3] = test system: H1N1 virus strain A/PR/8/34; assay: microbe, parasite or virus in culture; format: cell-based, Influenza A (H1N1) virus; details: MDCK cells
# [4] = test system: H1N1 virus particles; assay: Direct binding assay to H1N1 virus particles (DART TOF-MS); parameters: species or system Influenza A (H1N1) virus
# Method: Further, direct binding of test biomarkers in HSRx 351 to influenza virus and hemagglutinin were evaluated using the methods described in Roscheck Jr 2009. […] The methodology used is described in Roschek Jr 2009.
# Viral Particles—Briefly, H1N1 virus particles were incubated with HSRx 351 or synthetic biomarkers 6 or 7 analog, to allow binding of the compounds within HSRx 351. After incubation, unbound compounds were removed by washing the virus particles three times through a 100 kDa molecular weight cut off membrane filter (Amicon 100 kDa filter, Ultracel PL-100; Millipore Corp. Billerica, Mass.) with phosphate buffered saline (PBS). The virus particles were then collected and fixed in 100% EtOH. The fixed virus particles and the washed fractions containing the unbound chemicals were collected and analyzed directly by DART TOF-MS for comparison.
# [5] = preliminary statistical results
# [6] = Influenza A virus, read-out: IC50
# [7] = Influenza A virus, read-out: IC50 (μg/mL)
compound,measurement,setting,value
"CCOC(=O)C1=C[C@@H](OC(CC)CC)[C@H](NC(C)=O)[C@@H](N)C1 [Tamiflu ®, Oseltamivir Phosphate]",Adverse events attributed to study product,[1]; 29 subjects per group,4 number of subjects
same,At least one symptom worsened by end of study,[1]; 29 subjects per group,6 number of subjects
same,Multiple symptoms worsened by end of study,[1]; 29 subjects per group,3 number of subjects
same,Symptoms failed to improve by end of study,[1]; 29 subjects per group,2 number of subjects
same,Composite VAS assessment exceeding baseline VAS,"[1]; five day treatment, preliminary results",baseline VAS = 126
same,"% Average Reduction, Aches and pains",[1]; [5],64.46%
same,"% Average Reduction, Composite",[1]; [5],63.83%
same,"% Average Reduction, Degree of coughing",[1]; [5],67.74%
same,"% Average Reduction, Fever reduction",[1]; [5],85.38%
same,"% Average Reduction, Frequency of coughing",[1]; [5],50.38%
same,"% Average Reduction, Mucus discharge in the respiratory tract",[1]; [5],54.63%
same,"% Average Reduction, Nasal congestion",[1]; [5],66.35%
same,"% Average Reduction, Quality of sleep",[1]; [5],57.89%
same,medically related adverse events reported,[2],Five
"CCOC(=O)C1=C[C@@H](OC(CC)CC)[C@H](NC(C)=O)[C@@H](N)C1 [Oseltamivir, oseltamivir]",IC50,[3]; [6],0.32 µM
same,IC50,[3]; [7],0.1 µg/mL
3-Hydroxyflavonone [Biomarker 7 analog],IC50 (μg/mL),[3],2.8 and μg/mL
same,IC50,[3]; read-out: IC50,8.7 µM
same,binding to H1N1 virus particles (enrichment in the fixed virus samples over the washed fractions),[4],bind H1N1 virus particles
"NC12CC3CC(CC(C3)C1)C2 [Amantadine, amantadine]",IC50,[3]; [6],27 µM
same,IC50,[3]; [7],4.1 µg/mL
